From patent publication US20090196833A1, “COMPOSITIONS COMPRISING TOPICAL DPD INHIBITORS AND METHODS OF USING SAME IN THE TREATMENT OF HAND-FOOT SYNDROME” (ADHEREX TECHNOLOGIES INC., priority 2008, published 2009)
Like-named read-outs stand apart in the source and are kept apart here.

What was measured:
[1] = 5-FU pharmacokinetics in pigs with topical eniluracil (Example 6); format: in vivo; settings: pig, plasma, 6 mg/kg, 5-FU 6 mg/kg bolus, read-out: 5-FU Half-Life, Mean (SD)
Description: (§1) This study was carried out to determine the plasma pharmacokinetics of eniluracil (EU) after topical administration and to evaluate the effect of topical eniluracil application on 5-FU pharmacokinetics, peripheral blood mononuclear cell (PBMC) dihydropyrimidine dehydrogenase (DPD) function, and levels of DPD activity in the skin in vivo. Eniluracil (0.005% and 0.01% w/w) formulated using Aquaphor® was applied topically (617 mg to a designated area) for 5 minutes every other day for 16 days starting on Day-2. 5-Fluorouracil was administered as a 6 mg/kg bolus injection on Day-3, Day 0 and Day 14. Samples were collected at predetermined time intervals to evaluate 5-fluorouracil pharmacokinetics, eniluracil pharmacokinetics, skin DPD activity and systemic DPD activity.
(§2) A baseline 5-FU pharmacokinetic study was conducted on Day-3 by collecting serial blood samples after 5-FU administration. […] The total ointment applied was […]. The area of application in the pig ([…]=0.0040 m^2) was selected based on feasibility and scale to the proposed human use using the following figures: the surface area of one palm and one sole combined in a human is 2% of the total body surface area, the average total body surface area in a pig is 0.40 m^2. Thus, in terms of total eniluracil in mg/m^2 applied to pigs was 0.154 for 0.01% and 0.077 for 0.005%. The duration of application was 5 minutes, which was determined based data obtained from a pilot study. In this study, higher doses of topical eniluracil (5 gms of 0.01%, 0.05% and 0.01% w/w) and placebo were applied on the skin and skin biopsies were collected after predefined time intervals. These samples were then analyzed for DPD activity.
(§3) Ointment exposure time was 5 minutes every other day for 16 days. Eniluracil treated animals also received 617 mg of placebo at a site different from the treatment site. Eniluracil pharmacokinetics were analyzed from the serial blood samples drawn on first day of the 5-FU and eniluracil treatment (Day 0) and on Day 14. In addition, eniluracil concentrations were evaluated in all samples obtained for 5-FU pharmacokinetics, as shown above. 5-FU pharmacokinetics were evaluated from 11 serial blood samples drawn after the IV bolus administration of 5-FU on Day-3, Day 0 and Day 14. On 5-FU treatment days, eniluracil administration was conducted first (5 min) followed by 5-FU at the 6 minute time point. Blood samples were collected for plasma EU analyses prior to topical administration and at 2 min and 5 min (end of topical exposure). Blood samples were collected for both EU and 5-FU analyses immediately prior to 5-FU administration and at the following times from the IV bolus: 2, 5, 10, 15, 30, 45, 60, 90 120, and 180 min. Determinations of eniluracil and 5-fluorouracil plasma pharmacokinetics were made. The effect on the local DPD activity and the effect of topical eniluracil on systemic DPD activity were assessed by collecting skin biopsies from both the treatment site and the placebo site, and peripheral blood mononuclear cells (PBMCs) on day-2 and on day 12. DPD activity in PBMCs was also measured on Day 17 and Day 19, to investigate the time to recovery if there was any systemic inhibition of DPD.
In terms of statistical considerations, the study was designed with 4 pigs to a treatment group in order to have 80% power for observation of at least a 40% difference in 5-FU systemic exposure between measurements conducted on day-3 (no eniluracil) to day 14 (on eniluracil every other day since day-2) at each of the two dosing levels (4 animals per dose level). These evaluations were conducted using matched, paired T Tests and Wilcoxon tests. In addition, day 14 data were compared between the treatment vs. control groups using the Kiruskal-Wallis test. […]

[2] = system: EpiDerm™ skin model (normal, human-derived epidermal keratinocytes (NHEK)); assay: EpiDerm skin model MTT conversion assay (ET50, dermal irritation); format: cell-based; settings: for ET50: exposure times 8, 20, 24 hours
From the text: The EpiDerm™ skin model system (MatTek) was used to assess the potential dermal irritation of eniluracil alone or its formulation. This system consists of normal, human-derived epidermal keratinocytes (NHEK) which have been cultured to form a multilayered, highly differentiated model of the human epidermis. […] The EpiDerm™ system is mitotically and metabolically active. Markers of mature epidermis-specific differentiation such as pro-filaggrin, the K1/K10 cytokeratin pair, involucrin, and type I epidermal transglutaminase have been localized in the model. […] Eniluracil was prepared and administered to the test system at the three final concentrations of 1000 μM, 500 μM, and 100 μM, and tested at three exposure times of 8, 20, and 24 hours. The DMSO solvent control was tested at exposure times of 8 and 24 hours. The negative control was tested at exposure times of 4 and 24 hours, and the positive control was tested at exposure times of 4 and 8 hours. […] Hydrochloric acid in an amount equivalent to the sodium hydroxide was added to neutralize the ointment. The exposure time control was also exposed in duplicate for 4 and 24 hours. Table 2 below summarizes the ET50 results of the EpiDerm™ assay for the test articles and the positive control, using the negative control results to determine the relative viability.

[3] = pH of test article in the EpiDerm studies; format: physicochemical
[4] = Plasma eniluracil after topical administration in pigs (Example 6); format: in vivo
Description: as §1, §2
as §3, with “On 5-FU treatment days, eniluracil administration was conducted first (5 min) followed by 5-FU at the 6 minute time point. Blood samples were collected for plasma EU analyses prior to topical administration and at 2 min and 5 min (end of topical exposure). Blood samples were collected for both EU and 5-FU analyses immediately prior to 5-FU administration and at the following times from the IV bolus: 2, 5, 10, 15, 30, 45, 60, 90 120, and 180 min. Determinations of eniluracil and 5-fluorouracil plasma pharmacokinetics were made.” left out

[5] = target: T1, dihydropyrimidine dehydrogenase (DPD) (Sus scrofa, UniProt Q28943); assay: Skin DPD activity in pigs with topical eniluracil (Example 6); format: in vivo; settings: short term topical application at 0.005% or 0.01% w/w
T1 construct: the supernatant (cytosolic fraction) was collected for use as the enzyme source; from tissue; host or cells: pig skin biopsies after topical dosing in vivo
T1 sequence (Q28943 4-1025): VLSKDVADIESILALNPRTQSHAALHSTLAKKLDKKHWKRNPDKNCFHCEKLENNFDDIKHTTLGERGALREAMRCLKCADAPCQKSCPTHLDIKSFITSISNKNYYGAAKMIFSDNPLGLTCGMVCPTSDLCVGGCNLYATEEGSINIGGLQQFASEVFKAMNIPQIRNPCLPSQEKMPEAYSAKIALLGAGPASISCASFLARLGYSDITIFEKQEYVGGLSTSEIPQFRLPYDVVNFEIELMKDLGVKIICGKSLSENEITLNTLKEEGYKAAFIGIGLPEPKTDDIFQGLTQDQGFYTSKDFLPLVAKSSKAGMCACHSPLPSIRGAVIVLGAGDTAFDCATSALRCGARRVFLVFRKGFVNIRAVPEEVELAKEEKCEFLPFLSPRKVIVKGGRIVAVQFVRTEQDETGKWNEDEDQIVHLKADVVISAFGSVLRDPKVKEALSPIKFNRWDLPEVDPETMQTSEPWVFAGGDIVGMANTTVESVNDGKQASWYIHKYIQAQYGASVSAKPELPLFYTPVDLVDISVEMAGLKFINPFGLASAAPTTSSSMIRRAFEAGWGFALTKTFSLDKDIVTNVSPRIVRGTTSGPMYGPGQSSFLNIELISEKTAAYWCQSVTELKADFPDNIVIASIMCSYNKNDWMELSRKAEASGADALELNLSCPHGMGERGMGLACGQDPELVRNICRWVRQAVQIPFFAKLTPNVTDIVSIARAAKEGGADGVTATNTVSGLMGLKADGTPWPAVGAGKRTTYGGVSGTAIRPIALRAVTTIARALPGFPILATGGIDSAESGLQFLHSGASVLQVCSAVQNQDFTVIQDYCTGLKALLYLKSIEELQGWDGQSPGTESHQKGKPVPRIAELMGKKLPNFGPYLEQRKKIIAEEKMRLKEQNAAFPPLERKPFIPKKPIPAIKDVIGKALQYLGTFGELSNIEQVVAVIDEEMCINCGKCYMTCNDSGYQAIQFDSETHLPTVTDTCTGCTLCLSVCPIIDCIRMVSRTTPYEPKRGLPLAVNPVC
Description: as §1, with “Samples were collected at predetermined time intervals to evaluate 5-fluorouracil pharmacokinetics, eniluracil pharmacokinetics, skin DPD activity and systemic DPD activity.” left out
A baseline 5-FU pharmacokinetic study was conducted on Day-3 by collecting serial blood samples after 5-FU administration. […] The duration of application was 5 minutes, which was determined based data obtained from a pilot study. […] These samples were then analyzed for DPD activity.
Ointment exposure time was 5 minutes every other day for 16 days. […] Eniluracil pharmacokinetics were analyzed from the serial blood samples drawn on first day of the 5-FU and eniluracil treatment (Day 0) and on Day 14. In addition, eniluracil concentrations were evaluated in all samples obtained for 5-FU pharmacokinetics, as shown above. 5-FU pharmacokinetics were evaluated from 11 serial blood samples drawn after the IV bolus administration of 5-FU on Day-3, Day 0 and Day 14. […]

[6] = capecitabine at labeled dose; cited from earlier work
[7] = system: Thymidine phosphorylase (TP); assay: Thymidine phosphorylase (TP) enzyme activity in skin sample supernatant; settings: concentration of 100 uM; 200 μM capecitabine substrate
Description: Skin samples were suspended in 600 μl of homogenization buffer containing 20 mM potassium phosphate (pH 8.0), 1.5 mM dithiothreitol (DTT), and 5 ul/ml protease inhibitor (Sigma). Samples were homogenized and centrifuged at 36,000 rpm for one hour at 4° C. The supernatants were collected and protein concentration was measured using the Bradford assay (Biorad). Thymidine phosporylase (TP) enzyme activity was determined in an assay mixture containing 20 mM potassium phosphate (pH 8.0), 1 mM DTT, 1 mM EDTA, 2 μM 6-^3H-Capecitabine (Moravek Biochemicals, Brea, Calif.), 200 μM unlabeled Capecitabine, varying concentrations of the inhibitor (100 μM, 10 μM, or 1 μM), and 80 μl of protein (6.0 mg/ml) in a final volume of 160 μl. Reactions were incubated at 37° C. for 30 minutes and then terminated by boiling for four minutes. To facilitate protein precipitation, the reactions were incubated at −80° C. for at least 20 minutes, thawed, and then centrifuged for 10 minutes at 14000 rpm at 4° C. The resulting supernatants were filtered through a 0.2 μm Acrodisc filter (VWR International, West Chester, Pa.) and samples were injected in duplicate (60 μl each) onto a HPLC (Hewlett-Packard 1050, Houston, Tex.) equipped with an automatic injector and on-line radioisotope flow detector (Radiomatic FLO-ONE Beta, Packard Instrument, Meriden, Conn.). […]

**Q.** What does the source list for `O=c1[nH]cc(F)c(=O)[nH]1` [5-FU, 5-Fluorouracil]?
**A.** half-life ([1]; iv, Both Doses of eniluracil ointment, Day 0): 10.1 min; half-life ([1]; iv, Both Doses of eniluracil ointment, Day 14): 9.77 min; half-life ([1]; iv, Controls (no ointment), Day 0): 7.56 min; half-life ([1]; iv, Controls (no ointment), Day 14): 9.74 min; half-life ([1]; iv, Controls (no ointment), Day −3): 5.51 min; half-life ([1]; iv, eniluracil ointment Dose 0.005%, Day 0): 6.98 min; half-life ([1]; iv, eniluracil ointment Dose 0.005%, Day 14): 6.7 min; half-life ([1]; iv, eniluracil ointment Dose 0.01%, Day 0): 13.2 min; half-life ([1]; iv, eniluracil ointment Dose 0.01%, Day 14): 12.8 min; half-life ([1]; topical or ocular, Both Doses of eniluracil ointment, Day −3 (no topical eniluracil)): 5.11 min; half-life ([1]; topical or ocular, eniluracil ointment Dose 0.005% group, Day −3 (no topical eniluracil)): 5.44 min; half-life ([1]; topical or ocular, eniluracil ointment Dose 0.01% group, Day −3 (no topical eniluracil)): 4.78 min

**Q.** For `C#Cc1c[nH]c(=O)[nH]c1=O` [Eniluracil, eniluracil], which “tolerability in EpiDerm skin model” value ([2]; 1000, 500 and 100 μM, topical exposures of up to 24 hours) is on record?
**A.** Its value is “well-tolerated”.

**Q.** What about the ET50 ([2]; eniluracil 100 uM) of the same compound?
**A.** The ET50 was over 24 h.

**Q.** What about the ET50 ([2]; eniluracil 500 uM) of the same compound?
**A.** The ET50 was over 24 h.

**Q.** And the ET50 ([2]; eniluracil 1000 uM)?
**A.** Its ET50 is over 24 h.

**Q.** And the pH ([3]; eniluracil 100 uM)?
**A.** The pH was 5.

**Q.** What about the pH ([3]; eniluracil 500 uM) of the same compound?
**A.** The pH was 5.

**Q.** What about the pH ([3]; eniluracil 1000 uM) of the same compound?
**A.** Its pH is 5.

**Q.** And the “plasma EU concentration” value ([4]; 221 of the 224 samples, limit of quantitation, topical 0.005% or 0.01% w/w, 5 minutes every other day)?
**A.** The value was at most 11 ng/mL.

**Q.** And the “plasma EU concentration” value ([4]; pig 5303, EU dose 0.005%, day 14, 6 min)?
**A.** The value was 12.81 ng/mL.

**Q.** And the “plasma EU concentration” value ([4]; pig 5303, EU dose 0.005%, day 14, 11 min)?
**A.** Its value is 11.52 ng/mL.

**Q.** And the “plasma EU concentration” value ([4]; pig 5303, EU dose 0.005%, day 14, 15 min)?
**A.** Its value is 11.07 ng/mL.

**Q.** What about the “effect on skin DPD activity” value [5] of the same compound?
**A.** The value was “temporary and recoverable inhibition”.

**Q.** With `CCCCCOC(=O)Nc1nc(=O)n([C@@H]2O[C@H](C)[C@@H](O)[C@H]2O)cc1F` [capecitabine, 5′-deoxy-5-fluoro-N-[(pentyloxy)carbonyl]-cytidine] as the compound, how does the “reported incidence of HFS, all grades” value [6] read?
**A.** The value was “approximately 60%”.

**Q.** What about the “reported incidence of HFS, high grade” value [6] of the same compound?
**A.** Its value is about 17%.

**Q.** With `Cc1cn([C@H]2C[C@H](O)[C@@H](CO)O2)c(=O)[nH]c1=O` [thymidine] as the compound, how does the “inhibition of TP activity” value [7] read?
**A.** Its value is “about 50%”.

**Q.** Which “inhibition of TP activity” value [7] does the source give for `O=c1ccn([C@@H]2O[C@H](CO)[C@@H](O)[C@H]2O)c(=O)[nH]1` [uridine] here?
**A.** The value was “about 50%”.
